8 molecules from patent US8697689B2, “Indole and benzomorpholine derivatives as modulators of metabotropic glutamate receptors” (Janssen Pharmaceuticals, Inc., priority 2008, dated 2014) can be followed below.

One data set concerns the target T1, human mGluR2 receptor (Homo sapiens, UniProt Q14416).
T1 construct: expressed in transfected cells; host or cells: CHO cells
Briefly: [35S]GTPγS binding assay (PAM assay) using membranes from CHO cells transfected with the human mGluR2 receptor. In kind it is biochemical. Particulars: in presence of mGluR2 agonist glutamate at a predetermined EC25 concentration; averages of duplicate values of 11-concentration response curves; error about 0.3 log-units; read-out: GTPgS-hR2 PAM pEC50 (converted). From the text:
The compounds provided in the present invention are positive allosteric modulators of mGluR2. These compounds appear to potentiate glutamate responses by binding to an allosteric site other than the glutamate binding site. The response of mGluR2 to a concentration of glutamate is increased when compounds of Formula (I) are present. Compounds of Formula (I) are expected to have their effect substantially at mGluR2 by virtue of their ability to enhance the function of the receptor. The behaviour of positive allosteric modulators tested at mGluR2 using the [^35S]GTPγS binding assay method described below and which is suitable for the identification of such compounds, and more particularly the compounds according to Formula (I), are shown in Table 4.
The [^35S]GTPγS binding assay is a functional membrane-based assay used to study G-protein coupled receptor (GPCR) function whereby incorporation of a non-hydrolysable form of GTP, [^35S]GTPγS (guanosine 5′-triphosphate, labelled with […] ^35S), is measured. The G-protein α subunit catalyzes the exchange of guanosine 5′-diphosphate (GDP) by guanosine triphosphate (GTP) and on activation of the GPCR by an agonist, [^35S]GTPγS, becomes incorporated and cannot be cleaved to continue the exchange cycle (Harper (1998) Current Protocols in Pharmacology 2.6.1-10, John Wiley & Sons, Inc.). […] Here we describe the use of the [^35S]GTPγS binding assay using membranes from cells transfected with the human mGluR2 receptor and adapted from Schaffhauser et al ((2003) Molecular Pharmacology 4:798-810) for the detection of the positive allosteric modulation (PAM) properties of the compounds of this invention.
CHO-cells were cultured to pre-confluence and stimulated with 5 mM butyrate for 24 hours, prior to washing in PBS (phosphate-buffered saline), and then collection by scraping in homogenisation buffer (50 mM Tris-HCl buffer, pH 7.4, 4° C.). Cell lysates were homogenized briefly (15 s) using an ultra-turrax homogenizer. The homogenate was centrifuged at 23 500×g for 10 min. and the supernatant discarded. The pellet was resuspended in 5 mM Tris-HCl, pH 7.4 and centrifuged again (30 000×g, 20 min., 4° C.). The final pellet was resuspended in 50 mM HEPES, pH 7.4 and stored at −80° C. in appropriate aliquots before use. Protein concentration was determined by the Bradford method (Bio-Rad, USA) with bovine serum albumin as standard.
Measurement of mGluR2 positive allosteric modulatory activity of test compounds in membranes containing human mGluR2 was performed using frozen membranes that were thawed and briefly homogenised prior to pre-incubation in 96-well microplates (15 μg/assay well, 30 minutes, 30° C.) in assay buffer (50 mM HEPES pH 7.4, 100 mM NaCl, 3 mM MgCl2, 50 μM GDP, 10 μg/ml saponin) with increasing concentrations of positive allosteric modulator (from 0.3 nM to 50 μM) and either a minimal pre-determined concentration of glutamate (PAM assay), or no added glutamate. For the PAM assay, membranes were pre-incubated with glutamate at EC25 concentration, i.e. a concentration that gives 25% of the maximal response glutamate, and is in accordance to published data (Pin et al. (1999) Eur. J. Pharmacol. 375:277-294). After addition of [^35S]GTPγS (0.1 nM, f.c.) to achieve a total reaction volume of 200 μl, microplates were shaken briefly and further incubated to allow [^35S]GTPγS incorporation on activation (30 minutes, 30° C.). The reaction was stopped by rapid vacuum filtration over glass-fibre filter plates (Unifilter 96-well GF/B filter plates, Perkin-Elmer, Downers Grove, USA) microplate using a 96-well plate cell harvester (Filtermate, Perkin-Elmer, USA), and then by washing three times with 300 μl of ice-cold wash buffer (Na2PO4.2H2O 10 mM, NaH2PO4.H2O 10 mM, pH=7.4). […]

T1 sequence (Q14416 19-872): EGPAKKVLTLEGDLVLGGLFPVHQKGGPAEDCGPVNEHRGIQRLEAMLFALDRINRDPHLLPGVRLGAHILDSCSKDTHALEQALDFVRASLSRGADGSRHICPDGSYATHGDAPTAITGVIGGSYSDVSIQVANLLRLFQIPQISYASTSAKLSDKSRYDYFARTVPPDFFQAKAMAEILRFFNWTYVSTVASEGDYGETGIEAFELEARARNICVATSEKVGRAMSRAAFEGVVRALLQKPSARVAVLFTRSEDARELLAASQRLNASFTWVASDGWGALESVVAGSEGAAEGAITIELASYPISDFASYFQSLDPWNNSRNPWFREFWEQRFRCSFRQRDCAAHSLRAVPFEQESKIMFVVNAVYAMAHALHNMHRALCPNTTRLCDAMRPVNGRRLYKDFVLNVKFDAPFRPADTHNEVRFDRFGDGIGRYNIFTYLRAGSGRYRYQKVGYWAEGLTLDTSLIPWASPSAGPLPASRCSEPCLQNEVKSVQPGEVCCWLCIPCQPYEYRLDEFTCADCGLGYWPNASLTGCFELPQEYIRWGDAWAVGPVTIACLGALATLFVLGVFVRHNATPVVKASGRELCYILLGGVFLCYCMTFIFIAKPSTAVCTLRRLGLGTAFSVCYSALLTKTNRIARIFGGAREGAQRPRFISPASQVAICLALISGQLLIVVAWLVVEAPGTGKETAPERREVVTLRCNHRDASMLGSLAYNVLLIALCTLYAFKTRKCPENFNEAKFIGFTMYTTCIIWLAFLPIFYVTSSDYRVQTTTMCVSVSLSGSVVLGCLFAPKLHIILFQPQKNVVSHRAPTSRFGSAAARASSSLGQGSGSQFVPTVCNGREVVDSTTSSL

Regarding `CCCCn1ccc(-c2ccc3c(c2)OCCN3C2CCOCC2)c(Cl)c1=O` [Compound 1, 1-Butyl-3-chloro-4-[4-(tetrahydro-pyran-4-yl)-3,4-dihydro-2H-benzo[1,4]oxazin-7-yl]-1H-pyridin-2-one], the EC50 on human mGluR2 receptor is 589 nM.
Turning to `CCCCn1ccc(-c2ccc3c(ccn3[C@H]3CC[C@H](O)CC3)c2)c(Cl)c1=O` [Compound 3, trans-1-Butyl-3-chloro-4-[1-(4-hydroxy-cyclohexyl)-1H-indol-5-yl]-1H-pyridin-2-one], the EC50 on human mGluR2 receptor was 102 nM.
Still for that read-out and setting: under `CCCCn1ccc(-c2ccc3c(ccn3[C@H]3CC[C@@H](O)CC3)c2)c(Cl)c1=O` [Compound 4, cis-1-Butyl-3-chloro-4-[1-(4-hydroxy-cyclohexyl)-1H-indol-5-yl]-1H-pyridin-2-one] stands 148 nM.
`CCCCn1ccc(-c2ccc3c(ccn3[C@H]3CC[C@](C)(O)CC3)c2)c(Cl)c1=O` [Compound 5, trans-1-Butyl-3-chloro-4-[1-(4-hydroxy-4-methyl-cyclohexyl)-1H-indol-5-yl]-1H-pyridin-2-one]: the EC50 at human mGluR2 receptor is 75.9 nM.
As for `CCCCn1ccc(-c2ccc3c(ccn3[C@H]3CC[C@@](C)(O)CC3)c2)c(Cl)c1=O` [Compound 6, cis-1-Butyl-3-chloro-4-[1-(4-hydroxy-4-methyl-cyclohexyl)-1H-indol-5-yl]-1H-pyridin-2-one], the EC50 on human mGluR2 receptor was 302 nM.
In general, melting point refers to the temperature, or range, at which the solid turns liquid. `CC(C)CCn1ccc(-c2ccc3c(ccn3[C@H]3CC[C@H](O)CC3)c2)c(Cl)c1=O` [Compound 7, trans-3-Chloro-4-[1-(4-hydroxy-cyclohexyl)-1H-indol-5-yl]-1-(3-methyl-butyl)-1H-pyridin-2-one] came in with a melting point of 182.3 °C. Further, the EC50 at human mGluR2 receptor is 89.1 nM.
For `O=c1c(Cl)c(-c2ccc3c(ccn3[C@H]3CC[C@H](O)CC3)c2)ccn1CC1CC1` [Compound 8, trans-3-Chloro-1-cyclopropylmethyl-4-[1-(4-hydroxy-cyclohexyl)-1H-indol-5-yl]-1H-pyridin-2-one] the same measures were 209.4 °C and 302 nM.
With `CCCCn1ccc(-c2ccc3c(ccn3C3CCOCC3)c2)c(Cl)c1=O` [Compound 9, 1-Butyl-3-chloro-4-[1-(tetrahydro-pyran-4-yl)-1H-indol-5-yl]-1H-pyridin-2-one], the EC50 on human mGluR2 receptor was 309 nM.
